Data published in patent publication US20090131354A1, “miR-126 REGULATED GENES AND PATHWAYS AS TARGETS FOR THERAPEUTIC INTERVENTION” (priority 2007, published 2009).

What was measured:
[1] = system: human leukemia cells (Jurkat) and normal human T cells; details: cited from earlier work
[2] = system: human H460 lung cancer xenografts; experiment: H460 lung cancer xenograft, cells electroporated before implantation; assay type: in vivo, NOD/SCID mice; details: H460, day 7
Method: The inventors assessed the growth-inhibitory activity of hsa-miR-126 in human lung cancer xenografts grown in immunodeficient mice. Hsa-miR-126 was delivered into A549 and H460 lung cancer cells via electroporation using the Gene Pulser Xcell™ (BioRad) with the following settings: 15×10^6 cells with 5 μg miRNA in 200 μl OptiMEM, square wave pulse at 150 V for 10 ms. Electroporated cells (5×10^6) were mixed with BD Matrigel™, (BD Biosciences; San Jose, Calif., USA; cat. no. 356237) in a 1:1 ratio and injected subcutaneously into the flank of NOD/SCID mice (Charles River Laboratories, Inc.; Wilmington, Mass., USA). As a negative control, A549 and H460 cells were electroporated with negative control (NC) miRNA (Pre-miR™ microRNA Precursor Molecule-Negative Control #2; Ambion cat. no. AM17111) as described above. To assess the anti-oncogenic activity of hsa-miR-126, six animals were injected with A459 cells and six animals were injected with H460 cells. NC miRNA-treated cells were injected into the opposite flank of the same animal to control for animal-to-animal variability. Once tumors reached a measurable size (A549 at 7 days post injection; H460 at 5 days post injection), the length and width of tumors were determined every day for up to 11 days. Tumor volumes were calculated using the formula, Volume=length X width X width/2, in which the length is greater than the width. […]

[3] = system: human A549 lung cancer xenografts; experiment: A549 lung cancer xenograft, cells electroporated before implantation; assay type: in vivo, NOD/SCID mice
Method: The inventors assessed the growth-inhibitory activity of hsa-miR-126 in human lung cancer xenografts grown in immunodeficient mice. Hsa-miR-126 was delivered into A549 and H460 lung cancer cells via electroporation using the Gene Pulser Xcell™ (BioRad) with the following settings: 15×10^6 cells with 5 μg miRNA in 200 μl OptiMEM, square wave pulse at 150 V for 10 ms. Electroporated cells (5×10^6) were mixed with BD Matrigel™, (BD Biosciences; San Jose, Calif., USA; cat. no. 356237) in a 1:1 ratio and injected subcutaneously into the flank of NOD/SCID mice (Charles River Laboratories, Inc.; Wilmington, Mass., USA). As a negative control, A549 and H460 cells were electroporated with negative control (NC) miRNA (Pre-miR™ microRNA Precursor Molecule-Negative Control #2; Ambion cat. no. AM17111) as described above. To assess the anti-oncogenic activity of hsa-miR-126, six animals were injected with A459 cells and six animals were injected with H460 cells. NC miRNA-treated cells were injected into the opposite flank of the same animal to control for animal-to-animal variability. Once tumors reached a measurable size (A549 at 7 days post injection; H460 at 5 days post injection), the length and width of tumors were determined every day for up to 11 days. Tumor volumes were calculated using the formula, Volume=length X width X width/2, in which the length is greater than the width. For animals carrying A549 xenografts, tumor volumes derived from NC-treated cells and hsa-miR-126-treated cells were averaged and plotted over time (FIG. 4). The p value, indicating statistical significance, is shown for values obtained on day 18 (p=0.0125).

[4] = system: LNCaP prostate cancer cells; experiment: Alamar Blue proliferation assay, LNCaP; assay type: cell-based, human; details: 30 nM, normalized to negative control miRNA (100% proliferation)
Excerpt: The inventors assessed the therapeutic effect of hsa-miR-126 for prostate cancer by using 4 individual human prostate cancer cell lines. To measure cellular proliferation of prostate cancer cells, the following prostate cancer cell lines were used: PPC-1, derived from a bone metastasis; Du145, derived from a brain metastasis; RWPE2, derived from prostate cells immortalized by human papillomavirus 18 and transformed by the K-RAS oncogene; and LNCaP, derived from a lymph node metastasis (Stone et al., 1978; Horoszewicz et al., 1980; Brothman et al., 1991; Pretlow et al., 1993; Bello et al., 1997). PPC-1 and Du145 cells lack expression of the prostate-specific antigen (PSA) and are independent of androgen receptor (AR) signaling. In contrast, RWPE2 and LNCaP cells test positive for PSA and AR. Cells were transfected with synthetic hsa-miR-126 (Pre-miR™-hsa-miR-126, Ambion cat. no. AM 17100) or negative control miRNA (NC; Pre-miR™ microRNA Precursor Molecule-Negative Control #2; Ambion cat. no. AM17111) in a 96-well format using a lipid-based transfection reagent. […] Proliferation was assessed 4-7 days post-transfection using Alamar Blue™ (Invitrogen) following the manufacturer's instructions. […] Fluorescent light units (FLU) were measured after 3 hours, normalized to the control, and plotted as percent change in proliferation. […]

[5] = system: Du145 prostate cancer cells; experiment: Long-term growth curve with repeated electroporation, Du145; assay type: cell-based, human
Excerpt: To evaluate the therapeutic activity of hsa-miR-126 over an extended period of time, we conducted growth curve experiments in the presence of miRNA for up to 21 days. Since in vitro transfections of naked interfering RNAs, such as synthetic miRNA, are transient by nature and compromised by the dilution of the oligonucleotide during ongoing cell divisions, we administered miRNA at multiple time points (Bartlett and Davis, 2006; Bartlett and Davis, 2007). To accommodate miRNA delivery into a large quantity of cells, we employed the electroporation method to delivery hsa-miR-126 or negative control miRNA into PPC-1, PC3 and Du145 human prostate cancer cells. Briefly, 1×10^6 PPC-1 or PC3 cells, and 0.5×10^6 Du145 cells were electroporated with 1.6 μM hsa-miR-126 or negative control using the BioRad Gene Pulser Xcell™ instrument (BioRad Laboratories Inc., Hercules, Calif., USA), seeded and propagated in regular growth medium. Experiments with PC3 and Du145 cells were carried out in triplicates. When the control cells reached confluence (days 4 and 11 for PPC-1; days 7 and 14 for PC3 and Du145), cells were harvested, counted and electroporated again with the respective miRNAs. […] The population doubling was calculated from these electroporation events using the formula PD=ln(Nf/N0)/ln2, and cell counts were extrapolated and plotted on a linear scale (FIGS. 10-12). […]

hsa-miR-126 (UCGUACCGUGAGUAAUAAUGC; synthetic pre-miR form, further chemistry not given here) [Synthetic hsa-miR-126 (Pre-miR™-hsa-miR-126, Ambion cat. no. AM17100)]
effect on proliferation [1]: increasing the proliferation | tumor size relative to control tumors [2]: smaller in size | tumor size relative to control tumors ([3]; A549, day 18, n=6): all animals showed smaller tumors | tumor growth in vivo ([3]; A549 cells electroporated with miRNA before s.c. implantation): inhibited tumor growth in vivo | Ki-67 antigen in tumors (histology) ([3]; A549 tumors): diminished levels of the Ki-67 antigen | % proliferation [4]: 80.59% | inhibition of cell growth ([5]; Du145, day 20, 1.6 μM repeated electroporation, relative to control cells (100%)): 83.9% | remaining cells ([5]; Du145, day 20, relative to control cells (100%)): 16.1%
